Legend:
[1] = tested on: Puccinia recondita f. sp. Tritici; test: Fungicidal activity against Puccinia recondita f. sp. Tritici / wheat / leaf disc preventative (brown rust); format: in vivo; settings: foliar, 200 ppm in the applied formulation, wheat leaf segments cv. Kanzler, inoculated 1 day after application, vs untreated control, read-out: disease control
Procedure, shortened: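 Sprayed at 200 ppm one day ahead of spore inoculation, wheat leaf segments of cultivar Kanzler sat on agar under 19° C., 75% relative humidity and alternating 12-hour light and dark. Efficacy was taken as percent disease control relative to untreated segments after 7 to 9 days.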

[2] = tested on: Puccinia recondita f. sp. Tritici; test: Fungicidal activity against Puccinia recondita f. sp. Tritici / wheat / leaf disc curative (brown rust); format: in vivo; settings: foliar, 24 h, 200 ppm in the applied formulation, wheat leaf segments cv. Kanzler, applied 1 day after inoculation, vs untreated control, read-out: disease control
Procedure: Leaf disks or leaf segments of various plant species are cut from plants grown in a greenhouse. The cut leaf disks or segments are placed in multiwell plates (24-well format) onto water agar. The leaf disks are sprayed with a test solution before (preventative) or after (curative) inoculation. Compounds to be tested are prepared as DMSO solutions (max. 10 mg/ml) which are diluted to the appropriate concentration with 0.025% Tween20 just before spraying. The inoculated leaf disks or segments are incubated under defined conditions (temperature, relative humidity, light, etc.) according to the respective test system. A single evaluation of disease level is carried out 3 to 14 days after inoculation, depending on the pathosystem. Percent disease control relative to the untreated check leaf disks or segments is then calculated.
Wheat leaf segments cv. Kanzler are placed on agar in multiwell plates (24-well format). The leaf segments are then inoculated with a spore suspension of the fungus. Plates were stored in darkness at 19° C. and 75% relative humidity. The formulated test compound diluted in water was applied 1 day after inoculation. The leaf segments were incubated at 19° C. and 75% relative humidity under a light regime of 12 hours light/12 hours darkness in a climate cabinet and the activity of a compound was assessed as percent disease control compared to untreated when an appropriate level of disease damage appears in untreated check leaf segments (6 to 8 days after application).
The following compounds at 200 ppm in the applied formulation give at least 80% disease control in this test when compared to untreated control leaf disks under the same conditions, which show extensive disease development.

[3] = tested on: Glomerella lagenarium (Colletotrichum lagenarium); test: Fungicidal activity against Glomerella lagenarium (Colletotrichum lagenarium) liquid culture / cucumber / preventative (anthracnose); format: cell-based; settings: Colletotrichum orbiculare, 72 h; 20 ppm in the applied formulation; liquid culture (PDB), growth inhibition measured photometrically 3 to 4 days after application; vs untreated control; read-out: disease control
Procedure, shortened: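 Photometric measurement of fungal growth inhibition 3 to 4 days after application gives percent activity relative to untreated check. Conidia were suspended in potato dextrose broth and combined with DMSO compound solutions; incubation at 24° C.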

[4] = tested on: Phakopsora pachyrhizi; test: Fungicidal activity against Phakopsora pachyrhizi / soybean / leaf disc preventative (Asian soybean rust); format: in vivo; settings: foliar, 200 ppm in the applied formulation, soybean leaf disks, vs untreated control, read-out: disease control
Procedure, shortened: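 Soybean leaf discs on water agar sprayed with compound diluted in water, then inoculated with spores on the lower surface one day later. Kept 24-36 h dark, 20 °C, 75% rh, then 12 h light/12 h dark. Percent disease control versus untreated scored 12-14 days after application.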

Row | Compound | melting point [°C] | pest or weed control at 200 ppm [1] [%] | pest or weed control at 200 ppm [2] [%] | inhibition of growth at 20 ppm [3] [%] | pest or weed control at 200 ppm [4] [%]
1 | CO/N=C/CN(C(=O)c1ccc(-c2noc(C(F)(F)F)n2)cc1)C1CC1 [Compound 1.170, N-cyclopropyl-N-[(2E)-2-methoxyiminoethyl]-4-[5-(trifluoromethyl)-1,2,4-oxadiazol-3-yl]benzamide] | 60 to 62 | – | – | – | –
2 | CON=CCNC(=O)c1ccc(-c2noc(C(F)(F)F)n2)cc1F [Compound 1.169, 2-fluoro-N-(2-methoxyimino-ethyl)-4-[5-(trifluoromethyl)-1,2,4-oxadiazol-3-yl]benzamide] | 116 to 118 | – | – | – | –
3 | CO/N=C\NC(=O)c1ccc(-c2noc(C(F)(F)F)n2)cc1 [Compound 1.5, N-[(Z)-methoxyiminomethyl]-4-[5-(trifluoromethyl)-1,2,4-oxadiazol-3-yl]benzamide] | – | ≥ 80 | ≥ 80 | ≥ 80 | ≥ 80
4 | C=CCON=CC(C)NC(=O)c1ccc(-c2noc(C(F)(F)F)n2)cc1 (stereo not shown) [Compound 1.46, N-(2-allyloxyimino-1-methyl-ethyl)-4-[5-(trifluoromethyl)-1,2,4-oxadiazol-3-yl]benzamide] | – | ≥ 80 | ≥ 80 | ≥ 80 | ≥ 80
5 | CCCON=CCNC(=O)c1ccc(-c2noc(C(F)(F)F)n2)cc1 [Compound 1.72, N-(2-propoxyiminoethyl)-4-[5-(trifluoromethyl)-1,2,4-oxadiazol-3-yl]benzamide] | – | ≥ 80 | ≥ 80 | ≥ 80 | ≥ 80
6 | O=C(NCC=NOCC=CCl)c1ccc(-c2noc(C(F)(F)F)n2)cc1 [Compound 1.78, N-[2-(3-chloroallyloxyimino)ethyl]-4-[5-(trifluoromethyl)-1,2,4-oxadiazol-3-yl]benzamide] | – | ≥ 80 | ≥ 80 | ≥ 80 | ≥ 80
7 | CC(C=NOCCO)NC(=O)c1ccc(-c2noc(C(F)(F)F)n2)cc1 (stereo not shown) [Compound 1.15, N-[2-(2-hydroxyethoxy-imino)-1-methyl-ethyl]-4-[5-(trifluoromethyl)-1,2,4-oxadiazol-3-yl]benzamide] | – | ≥ 80 | ≥ 80 | ≥ 80 | ≥ 80
8 | CC(C)ON=CCNC(=O)c1ccc(-c2noc(C(F)(F)F)n2)cc1 [Compound 1.94, N-(2-isopropoxyimino-ethyl)-4-[5-(trifluoromethyl)-1,2,4-oxadiazol-3-yl]benzamide] | – | ≥ 80 | ≥ 80 | ≥ 80 | ≥ 80
9 | CC(CNC(=O)c1ccc(-c2noc(C(F)(F)F)n2)cc1)=NOC1CCCCO1 (stereo not shown) [Compound 1.114, N-(2-tetrahydropyran-2-yloxyiminopropyl)-4-[5-(trifluoromethyl)-1,2,4-oxadiazol-3-yl]benzamide] | – | ≥ 80 | ≥ 80 | ≥ 80 | ≥ 80
10 | CO/N=C/CNC(=O)c1ccc(-c2noc(C(F)(F)F)n2)cc1F [Compound 1.4, 2-fluoro-N-[(2E)-2-methoxyimino-ethyl]-4-[5-(trifluoromethyl)-1,2,4-oxadiazol-3-yl]benzamide] | – | ≥ 80 | ≥ 80 | ≥ 80 | ≥ 80
11 | CCCON=C(C)CNC(=O)c1ccc(-c2noc(C(F)(F)F)n2)cc1 [Compound 1.116, N-(2-propoxyimino-propyl)-4-[5-(trifluoromethyl)-1,2,4-oxadiazol-3-yl]benzamide] | – | ≥ 80 | ≥ 80 | ≥ 80 | ≥ 80
12 | NCCON=CCNC(=O)c1ccc(-c2noc(C(F)(F)F)n2)cc1 [Compound 1.66, N-[2-(2-aminoethoxy-imino)ethyl]-4-[5-(trifluoromethyl)-1,2,4-oxadiazol-3-yl]benzamide] | – | ≥ 80 | ≥ 80 | ≥ 80 | ≥ 80
13 | O=C(NCC=NOCC(F)(F)F)c1ccc(-c2noc(C(F)(F)F)n2)cc1 [Compound 1.95, N-[2-(2,2,2-trifluoroethoxy-imino)ethyl]-4-[5-(trifluoromethyl)-1,2,4-oxadiazol-3-yl]benzamide] | – | ≥ 80 | ≥ 80 | ≥ 80 | ≥ 80
14 | CC(CNC(=O)c1ccc(-c2noc(C(F)(F)F)n2)cc1)=NOC1COC1 [Compound 1.146, N-[2-(oxetan-3-yloxyimino)propyl]-4-[5-(trifluoromethyl)-1,2,4-oxadiazol-3-yl]benzamide] | – | ≥ 80 | ≥ 80 | ≥ 80 | ≥ 80
15 | C=CCON=C(C)CNC(=O)c1ccc(-c2noc(C(F)(F)F)n2)cc1 [Compound 1.135, N-(2-allyloxyimino-propyl)-4-[5-(trifluoromethyl)-1,2,4-oxadiazol-3-yl]benzamide] | – | ≥ 80 | ≥ 80 | ≥ 80 | ≥ 80
16 | O=C(NCC=NOCCO)c1ccc(-c2noc(C(F)(F)F)n2)cc1 [Compound 1.60, N-[2-(2-hydroxyethoxy-imino)ethyl]-4-[5-(trifluoromethyl)-1,2,4-oxadiazol-3-yl]benzamide] | – | ≥ 80 | ≥ 80 | ≥ 80 | ≥ 80
17 | CC(CNC(=O)c1ccc(-c2noc(C(F)(F)F)n2)cc1)=NOCC1CC1 [Compound 1.145, N-[2-(cyclopropyl-methoxyimino)propyl]-4-[5-(trifluoromethyl)-1,2,4-oxadiazol-3-yl]benzamide] | – | ≥ 80 | ≥ 80 | ≥ 80 | ≥ 80
18 | O=C(NCC=NOC1COC1)c1ccc(-c2noc(C(F)(F)F)n2)cc1 [Compound 1.102, N-[2-(oxetan-3-yloxyimino)ethyl]-4-[5-(trifluoromethyl)-1,2,4-oxadiazol-3-yl]benzamide] | – | ≥ 80 | ≥ 80 | ≥ 80 | ≥ 80
19 | CON=CC(C)NC(=O)c1ccc(-c2noc(C(F)(F)F)n2)cc1F (stereo not shown) [Compound 1.155, 2-fluoro-N-(2-methoxyimino-1-methyl-ethyl)-4-[5-(trifluoromethyl)-1,2,4-oxadiazol-3-yl]benzamide] | 132 to 134 | ≥ 80 | – | ≥ 80 | ≥ 80
20 | CC(ON=CCNC(=O)c1ccc(-c2noc(C(F)(F)F)n2)cc1)C(=O)O (stereo not shown) [Compound 1.82, 2-[2-[[4-[5-(trifluoromethyl)-1,2,4-oxadiazol-3-yl]benzoyl]amino]ethylideneamino] oxypropanoic acid] | – | ≥ 80 | ≥ 80 | ≥ 80 | ≥ 80
21 | CC(CNC(=O)c1ccc(-c2noc(C(F)(F)F)n2)cc1)=NOCCN [Compound 1.110, N-[2-(2-aminoethoxy-imino)propyl]-4-[5-(trifluoromethyl)-1,2,4-oxadiazol-3-yl]benzamide] | – | ≥ 80 | ≥ 80 | ≥ 80 | ≥ 80
22 | CCON=CC(C)NC(=O)c1ccc(-c2noc(C(F)(F)F)n2)cc1F (stereo not shown) [Compound 1.156, N-(2-ethoxyimino-1-methyl-ethyl)-2-fluoro-4-[5-(trifluoromethyl)-1,2,4-oxadiazol-3-yl]benzamide] | 113 to 115 | – | ≥ 80 | ≥ 80 | ≥ 80

From patent US11192867B2, “Microbiocidal oxadiazole derivatives” (SYNGENTA PARTICIPATIONS AG, priority 2016, dated 2021)
